# Laboratory results: article PMC2995924 (International journal of high throughput screening, 2010)
# Like-named read-outs stand apart in the source and are kept apart here.
# What was measured:
# [1] = molecular target: T1, rat S100B (Rattus norvegicus, UniProt P04631); experiment: Fluorescence polarization competition assay; assay type: binding
# T1 sequence (P04631 1-92): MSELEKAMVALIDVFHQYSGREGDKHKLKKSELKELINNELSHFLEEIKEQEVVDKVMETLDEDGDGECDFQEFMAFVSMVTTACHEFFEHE
# [2] = molecular target: T2, Ca2+-bound S100B (Rattus norvegicus, UniProt P04631); experiment: NMR 1H-15N HSQC chemical shift perturbation secondary screen; assay type: binding; conditions: for NMR (confirmed to bind S100B via NMR HSQC experiments): 10-fold excess compound versus S100B (100 μM; 10 mM Ca2+)
# T2 sequence (P04631 1-92): T1 sequence (P04631 1-92)
# [3] = molecular target: T3, S100B (Rattus norvegicus, UniProt P04631); experiment: Binding monitored by change in the compound's intrinsic fluorescence
# T3 sequence (P04631 1-92): T1 sequence (P04631 1-92)
# [4] = molecular target: TAMRA-TRTK; experiment: fluorescence polarisation
# [5] = molecular target: T1, rat S100B; experiment: Fluorescence polarization binding assay of labeled peptides; conditions: Ca2+-S100B
Compound,IC50 [1],Kd [1],NMR (confirmed to bind S100B via NMR HSQC experiments) [2],also measured
"CN(C)CCCN1c2ccccc2Sc2ccc(Cl)cc21 [SC0067, chlorpromazine]",2220 ± 1360 µM,697 ± 428 µM,–,–
"C[CH2][Hg][S]c1ccccc1C(=O)[O-].[Na+] [SC0332, thimerosal]",–,–,Yes,Kd ([1]; calculated from FPCA IC50 with the equation of Nikolovska-Coleska et al): 55.2 ± 5.1 µM
"C[n+]1cc2c3c(ccc2c2ccc4cc5c(cc4c21)OCO5)OCO3 [SC0844, sanguinarine]",35.9 ± 16.4 µM,10.7 ± 4.9 µM,Yes,Kd [3]: 5.8 µM
O=C(O)c1ccccc1S [thiosalicylic acid],–,–,–,"Inhibition of TAMRA-TRTK binding in the FPCA ([1]; even at 2.5 mM compound): did not significantly inhibit; Chemical shift perturbations of the HSQC NMR spectra ([2]; 1 mM compound added to 100 μM S100B, fast-exchange regime): significant chemical shift perturbations"
C68/84S mutant rat S100B (natural protein),–,–,–,Kd [4]: 2.42 µM
FITC-p53_367–393: FITC-labeled peptide of human p53 residues 367–393,–,–,–,Affinity (KD) of FITC-labeled peptide compared with unlabeled version [5]: significantly higher affinity than the unlabeled version
